Biological target: T1, β3GnT-7 (Homo sapiens, UniProt Q8NFL0)
T1 construct: made in house; host or cells: Sf21 insect cells (baculovirus, Bac-to-Bac); purified from culture supernatant on anti-M1 (anti-FLAG) resin
T1 sequence (Q8NFL0 75-401): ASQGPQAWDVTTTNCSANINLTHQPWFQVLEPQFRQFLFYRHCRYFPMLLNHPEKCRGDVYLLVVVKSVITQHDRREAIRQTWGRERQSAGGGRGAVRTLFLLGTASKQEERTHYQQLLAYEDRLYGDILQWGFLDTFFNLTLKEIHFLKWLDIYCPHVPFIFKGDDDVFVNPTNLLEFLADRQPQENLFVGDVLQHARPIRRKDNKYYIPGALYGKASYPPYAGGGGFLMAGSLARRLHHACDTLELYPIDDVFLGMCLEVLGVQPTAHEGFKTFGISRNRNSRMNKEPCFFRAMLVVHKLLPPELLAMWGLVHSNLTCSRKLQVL
Experiment: Search of acceptor substrate of β3Gn-T7 (UDP-[14C]GlcNAc transfer, TLC radioactivity)
Assay type: biochemical
Conditions: acceptor substrate 10 nmol, donor UDP-GlcNAc 480 μM, 37° C. for 5 hours, pH7.2
Text: Using the following reaction systems, the acceptor substrate was searched. As the “acceptor substrate” in the reaction solution described below, each of the following was used and whether each of them functioned as the acceptor or not was investigated: pNp-α-Glc, pNp-β-Glc, pNp-α-GlcNAc, pNp-β-GlcNAc, pNp-α-Gal, pNp-β-Gal, pNp-α-GalNAc, Bz-α-GalNAc, pNp-α-Xyl, pNp-β-Xyl, pNp-α-Fuc, Bz-α-Man, Bz-α-ManNAc, LacCer, GalCer typel and Bz-β-lactoside (all of them are from SIGMA) and Galβ1-4GlcNAc-α-pNp (TRONTO RESEARCH CHEMICAL).
The reaction solution (the numbers in the parentheses indicate the final concentrations) contained acceptor substrate (10 nmol), sodium cacodylate buffer (pH7.2) (50 mM), Triton CF-54 (trademark) (0.4%), MnCl2 (10 mM), UDP-GlcNAC (480 μM) and UDP-[^14C]GlcNAC (175 nCi) and CDP-colline (5 mM), to which 10 μl of the β3Gn-T7 enzyme solution and H2O were added to attain a final volume of 25 μl.
The reaction mixture was allowed to react at 37° C. for 5 hours, and after completion of the reaction, 200 μl of 0.1 M KCl was added, followed by light centrifugation and collection of the supernatant. […] After developing the mixture up to 5 mm from the top end of the TLC plate, the plate was dried and the intensity of the radioactivity taken in the product was measured using Bio Image Analyzer FLA3000 (FUJI PHOTO FILM).

SMILES	whether it functioned as the acceptor (transfer of GlcNAc by β3GnT-7)
OC[C@H]1O[C@@H](O[C@H]2[C@H](O)[C@@H](O)[C@H](OCc3ccccc3)O[C@@H]2CO)[C@H](O)[C@@H](O)[C@H]1O [Bz-β-lactoside]	activity to transfer GlcNAc
CC(=O)N[C@H]1[C@@H](Oc2ccc([N+](=O)[O-])cc2)O[C@H](CO)[C@@H](O[C@@H]2O[C@H](CO)[C@H](O)[C@H](O)[C@H]2O)[C@@H]1O [Galβ1-4Glc(NAc)-α-pNp, Galβ1-4GlcNAc-α-pNp]	activity to transfer GlcNAc

Source: patent US7223580B2, “N-acetylglucosamine transferase, nucleic acid encoding the same and use thereof in diagnosing cancer and/or tumor” (National Institute of Advanced Industrial Science and …, priority 2002, dated 2007)
